According to US20250387409A1, “3-BETA-HYDROXY-3-ALPHA-ETHYL STEROIDS FOR MODULATION OF THE ALPHA-3 SUBTYPE OF THE GABAA RECEPTOR” (priority 2021, published 2025):

Tests used:
[1] = biological target: T1, human GABAA-receptor subtype α3β3γ2L (Homo sapiens, UniProt P28472+P34903); test: Patch clamp (Dynaflow) THDOC enhancement of GABA response, HEK-293 cells, α3β3γ2L; type: cell-based; details: 1 μM steroid + THDOC
T1 construct: expressed in transfected cells
From the text: (§1) In these tests the protocol was optimized to be like the physiological conditions in the synaptic cleft.
(§2) Preparation of cell lines: HEK-293 cells permanently transfected with the human α1-β2-γ2L, α2-β3-γ2S, α3-ββ3-γ2L, α4-β3-δ or α5-β3-γ2L GABAA-receptor subtypes were used. The cell lines permanently expressing a functional human GABAA-receptor was made in following steps. The human GABAA-receptor subunits e.g. α1 (308-1727 NM_000806), β2 (214-1679 NM_000813), γ2L (290-1785 NM_198904), α2, β3, γ2S, α3, α4, δ and α5 including introduced Kozac sequences just before the start codons were subcloned into mammalian expression vectors containing Geneticin, Hygromycin B, and Zeocin resistance, respectively. A HEK-293 cell line stably expressing the three GABAA-receptor subunits was produced by transfection of the subunits, one at a time. The transfection was followed by selection with the appropriate antibiotics, cell separation with the use of subunit specific antibodies and production of single cell colonies. Produced cell lines were analysed with immunocytochemistry for the three GABAA-receptor subunits, followed by selection of a suitable cell line showing, for the GABAA-receptor normal and good reactivity in a patch-clamp analysis (see below) towards GABA and the GAMS THDOC.
(§3) Cell culture: HEK-293 cells, permanently transfected with human α1-β2-γ2L, α2-β3-γ2S, α3-β3-γ2L, α4-β3-δ and α5-β3-γ2L GABAA-receptor subtypes, were seeded at a density of 3×10^4/25 cm^2 in cell binding culture flask. The transfected cells were used for patch-clamp experiments 3 days after seeding. When using the cells for patch-clamp experiments the cells were washed twice with oxygen-bubbled EC-solution (see below). About 5 mL EC was then added and the cells were kept in the incubator for about 15 minutes. After 15 minutes the cells came loose from the bottom of the flask and were separated by carefully sucking couple of times with a Pasteur pipette.
(§4) Dynaflow™ system: Dynaflow™ system with resolve chips was used for all patch-clamp experiments. The resolve chips is made of non-sticky materials. The channel width is 150 μm and the height 50 μm. The well volume is 280 μL. Run time at the flow rate of 26 μL/min is […]. The pump settings were as follow: Omnifix 2 ml syringe with inner diameter of 9.65 mm was used. The syringe pump flow rate of chip was 26 μL/min.
(§5) Steroids and GABA: GABA was dissolved in EC-solution by ultrasound for about 40 minutes to the concentration of 10 mM in room temperature. All steroids were dissolved to the concentration of 6 mM in dimethyl sulfoxide (DMSO). The DMSO concentration was 0.1% in all end-solutions, including the wash solution (EC) and the solution with GABA alone. End-solutions are the solutions added into the wells of the chip.
(§6) Electrophysiology: Patch electrodes were pulled from 1.5 mm O.D., 0.86 mm I.D. borosilicate capillary glass without filament. […] The intracellular solution (IC) comprised of (in mM): 140 Cs-gluconate, 3.0 NaCl, 1.2 MgCl2, 1.0 EGTA, 10 HEPES. pH was adjusted to 7.2 with CsOH. The extracellular (EC) solution used during recordings contained (in mM): 137 NaCl, 5.0 KCl, 1.0 CaCl2), 1.2 MgCl2, 10 HEPES, 10 glucose. pH was adjusted with NaOH to 7.4. After compensating for the liquid junction potential, a steady holding potential of −17 mV was used in all experiments. In physiological conditions the HEK-293 has a resting potential at −40 mV and a low concentration of chloride ions inside the cell. By using the holding potential of-17 mV and the intracellular solution with low chloride ion concentration the chloride ions flux into the cell when the receptors are activated. All experiments were performed at room temperature (21 to 23° C.). The following standard protocol was used for all experiments.
(§7) GABA applications: By using the Dynaflow equipment it is possible to study transfected HEK-293 during almost physiological conditions.

Male Wistar rats [2] = test: Weight increase in growing male rats, experiment 2 (daily subcutaneous injection, 10 days); type: in vivo, rat; details: for reduced weight versus the E+P control rats / reduction in weight compared to vehicle: 10 days
Protocol: (§8) Animals: Male Wistar rats were kept in group cages, with three animals per cage, from delivery and throughout the period of experiments. The individual animals were marked so that they could be identified throughout the experiment duration. The animals weight an average of 152 g upon arrival. A reversed light dark (12:12h) cycle was used with the dark period onset at 0600 hrs. Altogether fifty-six (56) rats were used in this study (experiment 1+2). The animals were delivered from the breeder Taconic (Denmark). The study protocol was approved by the Regional Ethics Committee of Umeå University, Sweden.
(§9) Feeding: Standard chow and water were available ad libitum. A reversed 12-h dark-light cycle with lights off at 10.00 am and lights on at 22.00 pm was used. For identification, the rats were marked with a permanent marker on the tail. To avoid the endogenous allopregnanolone fluctuations that are present in the oestrous cycle of female rats, male rats were chosen (Frye et al. 2000). The animals were allowed to acclimatize for at least 3 weeks before start of the experimental sessions. During this period, the rats were repeatedly handled and allowed habituation to the new environment and to all new procedures, to minimize stress during the experiments.
(§10) After 14 days of triad housing, handling and injection training of the animals, the animals were treated for 5 days with IV injections in experiment 1 and 10 days with a daily subcutaneous injection of the assigned treatment in experiment 2 (Tables 4 and 5). The injections were given at 08.00 every morning. The animals were weighed the day before onset of the treatment and at the last day of injection i.e. on the 5th or 10th day of treatment. Weight was taken at the time of the last injection. […] The results are shown in FIG. 3 (experiment 1) and FIG. 4 (experiment 2), respectively.

[3] = biological target: T2, human α1-β2-γ2L GABAA-receptor subtype (Homo sapiens, UniProt P14867+P47870); test: Patch clamp (Dynaflow) GABA-mediated current response, HEK-293 cells, α1β2γ2L; type: cell-based; details: 1 μM steroid; essentially as in Example 2
T2 construct: expressed in transfected cells
T2 sequence (P14867 28-456): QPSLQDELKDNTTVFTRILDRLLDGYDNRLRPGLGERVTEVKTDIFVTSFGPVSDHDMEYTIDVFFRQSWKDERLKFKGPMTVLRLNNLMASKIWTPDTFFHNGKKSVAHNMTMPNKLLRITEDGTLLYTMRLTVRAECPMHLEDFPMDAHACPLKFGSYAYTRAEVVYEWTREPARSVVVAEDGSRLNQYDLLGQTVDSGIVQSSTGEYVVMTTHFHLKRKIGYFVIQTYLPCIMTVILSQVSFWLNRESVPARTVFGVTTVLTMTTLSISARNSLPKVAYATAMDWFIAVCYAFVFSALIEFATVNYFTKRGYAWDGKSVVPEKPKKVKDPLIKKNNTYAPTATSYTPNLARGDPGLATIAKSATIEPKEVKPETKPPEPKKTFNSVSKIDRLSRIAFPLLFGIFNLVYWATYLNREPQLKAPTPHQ
T2 sequence (P47870 26-474 isoform P47870-1 limits assumed): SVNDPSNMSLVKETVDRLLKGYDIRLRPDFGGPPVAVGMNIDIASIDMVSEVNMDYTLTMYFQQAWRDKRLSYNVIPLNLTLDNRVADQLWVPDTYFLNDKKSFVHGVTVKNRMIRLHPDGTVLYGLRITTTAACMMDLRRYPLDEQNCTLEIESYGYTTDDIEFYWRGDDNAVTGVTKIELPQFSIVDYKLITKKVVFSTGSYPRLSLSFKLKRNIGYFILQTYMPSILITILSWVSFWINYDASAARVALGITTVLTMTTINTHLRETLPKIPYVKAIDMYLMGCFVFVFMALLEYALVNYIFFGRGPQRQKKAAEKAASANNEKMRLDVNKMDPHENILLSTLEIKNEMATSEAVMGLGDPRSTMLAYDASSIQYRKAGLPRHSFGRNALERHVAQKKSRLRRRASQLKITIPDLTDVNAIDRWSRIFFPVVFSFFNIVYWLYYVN
T2 sequence (P18507 40-475 partner): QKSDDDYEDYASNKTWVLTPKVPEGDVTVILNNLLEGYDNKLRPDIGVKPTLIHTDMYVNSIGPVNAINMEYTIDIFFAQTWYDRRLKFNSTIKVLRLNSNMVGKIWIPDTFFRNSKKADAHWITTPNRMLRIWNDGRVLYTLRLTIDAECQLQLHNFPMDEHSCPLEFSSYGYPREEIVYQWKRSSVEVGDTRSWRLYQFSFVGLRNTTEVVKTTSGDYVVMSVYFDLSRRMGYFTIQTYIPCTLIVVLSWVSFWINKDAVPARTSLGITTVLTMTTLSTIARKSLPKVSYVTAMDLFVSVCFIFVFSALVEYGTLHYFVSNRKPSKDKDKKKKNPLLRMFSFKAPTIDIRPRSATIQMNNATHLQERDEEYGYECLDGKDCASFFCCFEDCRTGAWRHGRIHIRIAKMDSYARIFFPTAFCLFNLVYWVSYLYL
From the text: as §1, §2, §3, §4, §5
as §6, with “By using the holding potential of-17 mV and the intracellular solution with low chloride ion concentration the chloride ions flux into the cell when the receptors are activated. All experiments were performed at room temperature (21 to 23° C.). The following standard protocol was used for all experiments.” left out

Male Wistar rats [4] = test: Weight increase in growing male rats, experiment 1 (IV injections, 5 days); type: in vivo, rat; details: 2 mg/kg IV
Protocol: as §8, §9, §10

[5] = biological target: T3, human α3-β3-γ2L GABAA-receptor subtype (Homo sapiens, UniProt P28472+P34903); test: Patch clamp (Dynaflow) GABA-mediated current response, HEK-293 cells, α3β3γ2L; type: cell-based; details: 1 μM steroid; essentially as in Example 2
T3 construct: expressed in transfected cells
T3 sequence (P34903 29-492): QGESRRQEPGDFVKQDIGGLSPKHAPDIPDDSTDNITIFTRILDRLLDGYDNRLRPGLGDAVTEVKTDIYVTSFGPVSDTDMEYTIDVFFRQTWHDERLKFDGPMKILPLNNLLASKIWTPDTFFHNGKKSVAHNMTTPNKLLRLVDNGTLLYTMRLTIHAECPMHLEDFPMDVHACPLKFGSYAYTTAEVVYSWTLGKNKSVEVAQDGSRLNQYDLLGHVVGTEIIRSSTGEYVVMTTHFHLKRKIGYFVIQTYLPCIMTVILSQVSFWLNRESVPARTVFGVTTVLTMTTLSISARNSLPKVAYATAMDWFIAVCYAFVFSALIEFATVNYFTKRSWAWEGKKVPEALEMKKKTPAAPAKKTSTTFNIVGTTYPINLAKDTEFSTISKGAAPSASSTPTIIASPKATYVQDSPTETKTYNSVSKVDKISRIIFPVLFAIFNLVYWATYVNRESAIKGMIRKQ
T3 sequence (P28472 26-473): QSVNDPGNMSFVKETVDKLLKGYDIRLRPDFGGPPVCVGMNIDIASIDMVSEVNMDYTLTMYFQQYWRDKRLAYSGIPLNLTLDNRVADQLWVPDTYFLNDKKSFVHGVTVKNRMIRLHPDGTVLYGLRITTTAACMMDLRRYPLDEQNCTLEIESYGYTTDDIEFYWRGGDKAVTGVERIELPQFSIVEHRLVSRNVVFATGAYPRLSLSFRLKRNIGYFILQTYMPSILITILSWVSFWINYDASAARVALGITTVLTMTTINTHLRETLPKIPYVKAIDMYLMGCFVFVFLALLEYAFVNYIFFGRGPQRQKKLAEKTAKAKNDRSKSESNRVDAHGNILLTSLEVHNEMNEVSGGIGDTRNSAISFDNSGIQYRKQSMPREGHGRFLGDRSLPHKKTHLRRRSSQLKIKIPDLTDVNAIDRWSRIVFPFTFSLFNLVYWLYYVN
T3 sequence (P18507 40-475 partner): as the sequence (P18507 40-475 partner) above
From the text: as §1, §2, §3, §4, §5, §6, §7

GABAA receptor = details: table 3 in WO 09/142594; cited from earlier work
[6] = biological target: T4, GABAA receptor subtype α1β2γ2 (Homo sapiens, UniProt P14867+P47870); test: Patch clamp THDOC enhancement of GABA response, α1β2γ2; type: cell-based; details: 1 μM steroid + THDOC
T4 construct: expressed in transfected cells
T4 sequence (P14867 28-456): as the sequence (P14867 28-456) above
T4 sequence (P47870 26-474 isoform P47870-1 limits assumed): as the sequence (P47870 26-474 isoform P47870-1 limits assumed) above
T4 sequence (P18507 40-475 partner): as the sequence (P18507 40-475 partner) above
From the text: as §1
as §2, with “THDOC. […]” for “THDOC.”

[7] = 1 mg/kg s.c. + 5 mg/kg progesterone + 10 μg/kg 17β-estradiol
[8] = 5 mg/kg s.c. + 5 mg/kg progesterone + 10 μg/kg 17β-estradiol

T1 sequence (P34903 29-492): as the sequence (P34903 29-492) above
T1 sequence (P28472 26-473): as the sequence (P28472 26-473) above
T1 sequence (P18507 40-475 partner): as the sequence (P18507 40-475 partner) above

Q: Which “Antagonism of 100 nM THDOC-enhancement, a3β3γ2” value [1] does the source give for `C#C[C@]1(O)CC[C@@]2(C)[C@@H](CC[C@@H]3[C@@H]2CC[C@]2(C)C(=O)CC[C@@H]32)C1` [3α-ethynyl-3β-hydroxy-5α-androstan-17-one] here?
A: The value was −166 + 19.9%,.

Q: What about the “reduced weight versus the E+P control rats” value (Male Wistar rats [2]; [7]) of the same molecule?
A: The value was -23.9 ± 4.4 g.

Q: And the “reduction in weight compared to vehicle” value (Male Wistar rats [2]; [7])?
A: The value was -33 ± 4.4 g.

Q: What about the “reduced weight versus the E+P control rats” value (Male Wistar rats [2]; [8]) of the same molecule?
A: Its value is -20.4 ± 5.2 g.

Q: What about the “reduction in weight compared to vehicle” value (Male Wistar rats [2]; [8]) of the same molecule?
A: The value was -29.6 ± 5.2 g.

Q: And the “weight difference after 10 days of treatment compared to vehicle” value (Male Wistar rats [2]; 10 days s.c. treatment)?
A: The value was “over 20%”.

Q: And the “Effect against GABAs agonistic effect, α1β2γ2” value [3]?
A: Its value is −1.9 ± 2.4%.

Q: And the “increase in weight versus vehicle treated groups” value (Male Wistar rats [4])?
A: Its value is “significantly lower”.

Q: What about the “Mean weight increase since arrival. g” value (Male Wistar rats [4]; in 10% β-cyclodextrine 1 ml/kg, first block of Table 6) of the same molecule?
A: Its value is 97.43 g.

Q: And the “Mean weight increase since arrival. g” value (Male Wistar rats [4]; second block of Table 6 (increase from start of treatment))?
A: The value was 11.86 g.

Q: What about the “Effect against GABAs agonistic effect, a3β3γ2” value [5] of the same molecule?
A: The value was −46 ± 1.3%,.

Q: What about the “effect as a GAMSA or GAMS” value (GABAA receptor) of the same molecule?
A: Its value is “no effect as a GAMSA or GAMS”.

Q: And the “Antagonism of 100 nM THDOC-enhancement, α1β2γ2” value [6]?
A: Its value is “No effect”.
